Data: patent US20230407374A1, “SYSTEMS AND METHODS FOR HIGH THROUGHPUT SCREENING OF MOLECULAR INTERACTIONS” (priority 2020, published 2023)

Molecular target: short 8-mer DNA zipper (Z1: ATGTCCAT) target interaction
Assay: nanoswitch-FRET dose response with blocking oligonucleotides
Format: binding
Details: 1 nM nanoswitches with Z1 target interaction
Description: DNA nanoswitches were created as previously described (Koussa et al. 2015, Hansen et al. 2017). Briefly, circular ssDNA from the 7,249-nt bacteriophage M13 (New England BioLabs) was linearized by enzymatic cleavage of a single site using BtscI (New England BioLabs) and a site-specific oligonucleotide. This ssDNA scaffold was mixed with a molar excess of tiling 60-mer oligonucleotides (10:1), excluding the complementary regions for detection oligonucleotide and target interaction partners, and subjected to a temperature ramp from 90 to 20° C. at 1° C.−min-1. The detection oligonucleotides were added at 55° C. during the hybridization protocol. […]
The FRET from nanoswitches was quantified using a BioTek Neo plate reader. Specifically, the FRET emission was measured at 665 nm from […] and the non-FRET emission at 555 nm from […] using the built in monochromator-based system. The FRET ratio was then calculated as the ratio of the signal at 665 nm over 555 nm. For nanoswitch concentrations 2 nM and above, to reduce background, excitation at 540 nm was used instead and the FRET emission was measured at 680 nm.
FRET was measured in the presence of increasing concentrations of 7-mer (TGGACAT) or 8-mer ([…]) blocking oligonucleotides that bind to one side of the zipper. […]

Sequence	Ki (95% CI by bootstrapping (150 nM, 430 nM))	Ki (95% CI by bootstrapping (1.2 μM, 3.8 μM))
ATGGACAT [8-mer]	260 nM	–
TGGACAT [7-mer]	–	2000 nM
